{
  "source": "paper PMC10942122",
  "about": "(Science Advances, 2024)",
  "key": {"Mtb H37Rv WT [1]": {"tested_on": "Mtb H37Rv WT", "conditions": "cited from earlier work"}, "Mtb pptT cKD +ATc": {"tested_on": "Mtb pptT cKD +ATc", "assay": "microbe, parasite or virus in culture", "type": "cell-based", "conditions": "Mycobacterium tuberculosis, read-out: MIC90 PptT KD +ATc"}, "Mtb DHFR": {"target": "T1, Mtb DHFR (Mycobacterium tuberculosis, UniProt P9WNX1)", "T1 sequence (P9WNX1 1-161)": "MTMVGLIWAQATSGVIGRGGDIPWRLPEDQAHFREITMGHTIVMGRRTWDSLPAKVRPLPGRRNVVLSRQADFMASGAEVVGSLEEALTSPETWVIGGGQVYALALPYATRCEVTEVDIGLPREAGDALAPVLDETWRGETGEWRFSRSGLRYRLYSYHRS", "assay": "Dihydrofolate reductase", "type": "biochemical"}, "PptT [2]": {"target": "T2, PptT (Mycobacterium tuberculosis, UniProt O33336)", "T2 sequence (O33336 1-227)": "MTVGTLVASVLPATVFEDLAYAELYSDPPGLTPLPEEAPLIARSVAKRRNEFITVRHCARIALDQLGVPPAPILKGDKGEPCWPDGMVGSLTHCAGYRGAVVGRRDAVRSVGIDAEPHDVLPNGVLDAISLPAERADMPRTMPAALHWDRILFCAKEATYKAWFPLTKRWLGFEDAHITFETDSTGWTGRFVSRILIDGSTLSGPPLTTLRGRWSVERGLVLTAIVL", "assay": "Kinetic mechanism assay for N-ACP PKS13 substrate", "type": "biochemical"}, "PptT [3]": {"target": "T2, PptT", "assay": "FP-based PptT enzyme assay", "type": "biochemical"}, "CoA-saturated PptT": {"target": "T3, CoA-saturated PptT (Mycobacterium tuberculosis, UniProt O33336)", "T3 sequence (O33336 1-227)": "T2 sequence (O33336 1-227)", "assay": "biochemical", "type": "binding"}, "Mtb pptH KO": {"tested_on": "Mtb pptH KO", "assay": "Minimal inhibitory concentration determination, pptH KO", "type": "cell-based", "conditions": "Mycobacterium tuberculosis, read-out: MIC90 ΔPptH"}, "PptT [4]": {"target": "T2, PptT", "assay": "BpsA assay of PptT activity with native CoA", "type": "biochemical"}, "PptT [5]": {"target": "T2, PptT", "assay": "Preincubation and rapid dilution assay", "type": "biochemical", "conditions": "10 μM each preincubated, 500-fold dilution"}, "Mtb H37Rv WT [6]": {"tested_on": "Mtb H37Rv WT", "type": "cell-based, Mycobacterium tuberculosis"}, "PptT [7]": {"target": "T2, PptT", "assay": "Differential scanning fluorimetry thermal shift assay", "type": "binding", "conditions": "for ΔTm of CoA-preincubated PptT: 50 μM Ralt-1, Hepes buffer without arginine/glutamate"}, "[8]": {"tested_on": "Mtb pptT cKD -ATc (PptT depleted)", "type": "cell-based, Mycobacterium tuberculosis", "conditions": "PptT depleted by withholding ATc"}, "Mtb H37Rv": {"tested_on": "Mtb H37Rv", "conditions": "10 μM, 24 hours, Mtb on filters"}},
  "note": "Several values for one entry are separate records, joined by “and”; a condition that tells them apart may be missing. Equal entries are not always repeated.",
  "data": [
    {"molecule": "CN(Cc1cnc2nc(N)nc(N)c2n1)c1ccc(C(=O)N[C@@H](CCC(=O)O)C(=O)O)cc1", "note": "[Methotrexate]", "values": [
      {"measurement": "MIC90 against Mtb", "setting": "Mtb H37Rv WT [1]", "result": "> 100000", "unit": "µM"}
    ]},
    {"molecule": "Cc1nc2ccc(CN(C)c3ccc(C(=O)N[C@@H](CCC(=O)O)C(=O)O)s3)cc2c(=O)[nH]1", "note": "[Ralt-1, Raltitrexed]", "values": [
      {"measurement": "MIC", "setting": "Mtb pptT cKD +ATc", "result": "> 100", "unit": "µM"},
      {"measurement": "IC50", "setting": "Mtb DHFR", "result": 8500, "unit": "nM"},
      {"measurement": "mode of inhibition with respect to the ACP substrate", "setting": "PptT [2]", "result": "noncompetitive mode of inhibition"},
      {"measurement": "maximum inhibition", "setting": "PptT [3]; FP assay, BDP-CoA, normalized", "result": "≥ 100", "unit": "%"},
      {"measurement": "IC50", "setting": "PptT [3]; IC50 PptT, FP assay at 100 nM PptT enzyme concentration", "result": "70 nM and 65 nM"},
      {"measurement": "IC50", "setting": "PptT [3]; IC50 PptT, FP assay, fresh/resupplied powder or purity-checked sample", "result": "~50", "unit": "nM"},
      {"measurement": "IC50", "setting": "PptT [3]; IC50 against rPptT", "result": 730, "unit": "nM"},
      {"measurement": "Hill slope (h)", "setting": "PptT [3]; concentration-response curve, FP assay", "result": 1.5},
      {"measurement": "Kd", "setting": "CoA-saturated PptT", "result": "290 ± 29", "unit": "nM"},
      {"measurement": "MIC", "setting": "Mtb pptH KO", "result": "> 100", "unit": "µM"},
      {"measurement": "IC50", "setting": "PptT [4]", "result": 250, "unit": "nM"},
      {"measurement": "reversibility of binding to PptT", "setting": "PptT [5]", "result": "readily reversible"},
      {"measurement": "MIC90 H37Rv", "setting": "Mtb H37Rv WT [6]", "result": ">100", "unit": "µM"},
      {"measurement": "whole-cell activity / target profile against Mtb (in words)", "setting": "Mtb H37Rv WT [6]", "result": "no activity"},
      {"measurement": "ΔTm of CoA-preincubated PptT", "setting": "PptT [7]; 1 mM CoA", "result": 4, "unit": "°C"},
      {"measurement": "ΔTm of CoA-preincubated PptT", "setting": "PptT [7]; 2 mM CoA", "result": 3, "unit": "°C"},
      {"measurement": "gain in melting temperature (Tm) of PptT", "setting": "PptT [7]; 1:10 molar ratio of protein to Ralt-1", "result": 15, "unit": "°C"},
      {"measurement": "MIC90 PptT KD -ATc", "setting": "[8]", "result": ">100000", "unit": "nM"},
      {"measurement": "% Uptake from media", "setting": "Mtb H37Rv", "result": "1.2 ± 0.1", "unit": "%"}
    ]}
  ]
}
